Laboratory results: patent US11166970B2, “Composition for preventing or treating neurological disorder comprising aucubin” (University-Industry Cooperation Group of Kyung Hee …, priority 2017, dated 2021)

What was measured:
GAD65/67 = assay: Immunoblot analysis: expression of GAD65/67 (GABAergic neuron-specific marker); format: cell-based, rat; conditions: relative to β-actin, aucubin 0.01-10 μM vs untreated, FIG. 3A, C
Text: (§1) In order to culture neurons, cells were obtained from the brain of an E16 rat embryo according to a method known in the art (Lim et al., 2007; Jo et al., 2007). Specifically, hippocampal eminence was isolated from the forebrain of the E16 rat embryo, and cells were mechanically isolated from the thus-obtained hippocampal eminence tissue by using Ca^2+/Mg^2+-free HBSS(Hanks' Balanced Salt Solution, Invitrogen). PAX6-GFP expressing neuronal precursor cells (NPCs) were isolated from the sub ventricular zone of a PAX6-GFP transgenic mouse. […]
(§2) Specifically, cells (30,000 cells/cm^2), which were cultured in a 60 mm petri dish coated with 15 μg/mL of poly-L-ornithine (Sigma-Aldrich, USA) and 1 μg/mL of fibronectin (Sigma-Aldrich, USA), were used. […] The protein quantification was performed using a Bradford protein assay kit (Bio-Rad, Hercules, Calif., USA).
(§3) Subsequently, a mixture of 20 μg of the proteins and a loading buffer (Biosesang Co., Seoul, Korea) was boiled at 100° C. for 10 minutes to denature the proteins. […] Thereafter, signals were detected after culturing the proteins with a secondary antibody.
(§4) In order to verify the effect of aucubin on enhancing the survival rates of GABAergic and glutamatergic neurons, the cells were treated with aucubin, followed by quantifying the expression levels of each cell type marker by an immunoblot method. […]

[1] = system: neuronal precursor cells expressing Pax6-GFP; assay: Immunofluorescence staining: number of neuronal precursor cells expressing Pax6-GFP; format: cell-based; conditions: Pax6-GFP transgenic mouse neuronal precursor cells; aucubin 0.01-10 μM vs untreated; FIG. 4A, B
Text: (§5) In order to culture neurons, cells were obtained from the brain of an E16 rat embryo according to a method known in the art (Lim et al., 2007; Jo et al., 2007). Specifically, hippocampal eminence was isolated from the forebrain of the E16 rat embryo, and cells were mechanically isolated from the thus-obtained hippocampal eminence tissue by using Ca^2+/Mg^2+-free HBSS(Hanks' Balanced Salt Solution, Invitrogen). PAX6-GFP expressing neuronal precursor cells (NPCs) were isolated from the sub ventricular zone of a PAX6-GFP transgenic mouse.
(§6) The culture of cells was supplemented with 10 ng/mL or 20 ng/mL of bFGF (basic fibroblast growth factor, Invitrogen), and culturing was performed for 3 days in a serum-free N2 medium. After the confluency of cells reaches 70% to 80% by culturing for 3 to 4 days, the cells were subjected to passaging, and then divided and seeded according to an experimental use. Subsequently, the cells were cultured for 7 days in a N2 medium where FGF is removed, allowing neurons to be sufficiently differentiated. The cells were treated with aucubin (Sigma) at varying concentrations (0 μM, 0.01 μM, 0.1 μM, 1 μM, or 10 μM) in a bFGF-free N2 medium. […]
(§7) For GFP-fluorescence staining, an anti-GFP (rabbit anti-GFP antibody, 1:500, Merck, Germany) primary antibody was used. […]

[2] = system: GABAergic neurons expressing a GAD65/67 marker; assay: Immunofluorescence staining: survival rate of GABAergic neurons expressing a GAD65/67 marker; format: cell-based, rat; conditions: aucubin 0.01-10 μM vs cells not treated with aucubin; survival rate relative to total number of cells; FIG. 1A
Text: as §5, §6
(§8) Thereafter, the number of the stained cells was counted and the survival rates thereof were shown in a graph. […]

[3] = system: cholinergic neurons expressing a ChAT-GFP marker; assay: Immunofluorescence staining: survival rate of cholinergic neurons expressing a ChAT-GFP marker; format: cell-based; conditions: ChAT-GFP transgenic mouse cells; aucubin 0.01-10 μM vs untreated; relative to total DAPI-stained cells; FIG. 2b
Protocol: as §6, §7
(§9) Thereafter, the number of the stained cells was counted, and compared with the number of the cells expressing a GABAergic neuron-specific marker (GAD65/67), and the survival rates thereof were shown in a graph.
(§10) Specifically, the cells cultured by the method according to Experimental Example 1 were treated with aucubin at varying concentrations of 0 μM, 0.01 μM, 0.1 μM, 1 μM, and 10 μM, respectively. The number of GABAergic neurons expressing a GAD65/67 marker and the number of cholinergic neuron expressing a ChAT-GFP marker were shown in graphs as survival rates relative to the total number of cells which were fluorescence stained with DAPI.

[4] = system: cells synthesizing GABA among the cells expressing Pax6-GFP; assay: Immunofluorescence staining: ratio of cells synthesizing GABA among cells expressing Pax6-GFP; format: cell-based; conditions: Pax6-GFP transgenic mouse neuronal precursor cells; aucubin 0.01-10 μM vs untreated; FIG. 4C
Text: as §5, §6, §7

NeuN = assay: Immunoblot analysis: expression of NeuN (mature neuron-specific marker); format: cell-based, rat; conditions: relative to β-actin, aucubin 0.01-10 μM vs untreated, FIG. 3A, B
Text: as §1, §2, §3, §4

[5] = system: GABAergic neurons expressing a GAD65/67 marker; assay: Immunofluorescence staining: survival rate of GABAergic neurons in ChAT-GFP transgenic mouse culture; format: cell-based; conditions: ChAT-GFP transgenic mouse cells; aucubin 0.01-10 μM vs untreated; relative to total DAPI-stained cells; FIG. 2b
Protocol: as §6, §7, §9, §10

vGluT1 = assay: Immunoblot analysis: expression of vGluT1 (glutamatergic neuron-specific marker); format: cell-based, rat; conditions: relative to β-actin, aucubin 0.01-10 μM vs untreated, remarkably lower than GAD65/67, FIG. 3A, D
Text: as §1, §2, §3, §4

[6] = system: glutamatergic neurons expressing a vGluT1 marker; assay: Immunofluorescence staining: survival rate of glutamatergic neurons expressing a vGluT1 marker; format: cell-based, rat; conditions: aucubin 0.01-10 μM vs cells not treated with aucubin; increase remarkably lower than for GABAergic neurons; FIG. 1B
Text: as §5, §6, §8

## OCC1=C[C@@H](O)[C@@H]2C=CO[C@@H](O[C@@H]3O[C@H](CO)[C@@H](O)[C@H](O)[C@H]3O)[C@H]12 [aucubin]
GAD65/67
  increase in expression of GAD65/67 (GABAergic neuron-specific marker): up to 5 fold
[1]
  increase in number of cells which express Pax6-GFP: about 2 fold
[2]
  increase in survival rate of GABAergic neurons expressing a GAD67/65 marker: up to 2 fold
[3]
  survival rate of cholinergic cells expressing a ChAT-GFP marker: the increase rate thereof was not significant
[4]
  increase in ratio of cells synthesizing GABA among the cells expressing Pax6-GFP: ≥ 1.5 fold
NeuN
  expression of NeuN (mature neuron-specific marker): remarkably increased
[5]
  increase in survival rate of GABAergic neurons expressing a GAD65/67 marker: ~2 fold
vGluT1
  expression of vGluT1 (glutamatergic neuron-specific marker): significantly increased
[6]
  survival rate of excitatory neurons expressing vGluT1: significantly increased
